Reference: ChEMBL document CHEMBL3046398, “Synthesis and Antifungal Activities of Furoxan Derivatives Designed as Novel Fungicide” (1998)

Columns and labels:
Assay type in all cases: functional
[1] = test system: Blumeria graminis; experiment: Fungicidal activity against Blumeria graminis at 250 ppm relative to control
[2] = test system: Phytophthora infestans; experiment: Fungicidal activity against Phytophthora infestans at 250 ppm relative to control
[3] = test system: Puccinia recondita; experiment: Fungicidal activity against Puccinia recondita at 250 ppm relative to control
[4] = test system: Botrytis cinerea; experiment: Fungicidal activity against Botryotinia fuckeliana at 250 ppm relative to control
[5] = test system: Rhizoctonia solani; experiment: Fungicidal activity against Rhizoctonia solani at 250 ppm relative to control
[6] = test system: Pyricularia oryzae; experiment: Fungicidal activity against Magnaporthe oryzae at 250 ppm relative to control

[O-][n+]1onc(-c2ccccc2C(F)(F)F)c1-c1ccccc1C(F)(F)F [3,4-DI-(2-(TRIFLUOROMETHYL)PHENYL)FUROXAN]
Activity [1]: 14% | Activity [2]: 0% | Activity [3]: 0% | Activity [4]: 2% | Activity [5]: 6% | Activity [6]: 0%

COc1ccc(C(O)c2no[n+]([O-])c2C)cc1 (stereo not given) [4-[HYDROXY(4-METHOXYPHENYL)METHYL]-3-METHYLFUROXAN]
Activity [1]: 0% | Activity [2]: 19% | Activity [3]: 0% | Activity [4]: 17% | Activity [5]: 5% | Activity [6]: 4%

[O-][n+]1onc(-c2ccc(Cl)cc2)c1-c1ccc(Cl)cc1 [3,4-DI(4-CHLOROPHENYL)FUROXAN]
Activity [1]: 9% | Activity [2]: 28% | Activity [3]: 87% | Activity [4]: 30% | Activity [5]: 35% | Activity [6]: 14%

Cc1c(C(O)c2ccc(Cl)cc2)no[n+]1[O-] (stereo not given) [4-[(4-CHLOROPHENYL)HYDROXYMETHYL]-3-METHYLFUROXAN]
Activity [1]: 39% | Activity [2]: 20% | Activity [3]: 0% | Activity [4]: 25% | Activity [5]: 0% | Activity [6]: 0%

Cc1c(C(c2ccc(Cl)cc2)n2cncn2)no[n+]1[O-] (stereo not given) [4-[(4-CHLOROPHENYL)(1,2,4-TRIAZOL-1-YL)METHYL]-3-METHYLFUROXAN]
Activity [1]: 25% | Activity [2]: 37% | Activity [3]: 0% | Activity [4]: 0% | Activity [5]: 0% | Activity [6]: 16%

Cc1c(/C=N/Nc2ccc(Cl)cc2)no[n+]1[O-]
Activity [1]: 34% | Activity [2]: 45% | Activity [3]: 67% | Activity [4]: 71% | Activity [5]: 37% | Activity [6]: 0%

[O-][n+]1onc(-c2ccccc2Cl)c1-c1ccccc1Cl [3,4-DI-(2-CHLOROPHENYL)FUROXAN]
Activity [1]: 33% | Activity [2]: 20% | Activity [3]: 10% | Activity [4]: 0% | Activity [5]: 26% | Activity [6]: 13%

[O-][n+]1onc(-c2cccnc2Cl)c1-c1cccnc1Cl [3,4-DI-(2-CHLOROPYRIDIN-3-YL)FUROXAN]
Activity [1]: 0% | Activity [2]: 27% | Activity [3]: 10% | Activity [4]: 0% | Activity [5]: 11% | Activity [6]: 19%

[O-][n+]1onc(-c2ccc3ccccc3c2)c1-c1ccc2ccccc2c1 [3,4-DI(2-NAPHTHYL)FUROXAN]
Activity [1]: 73% | Activity [2]: 14% | Activity [3]: 0% | Activity [4]: 51% | Activity [5]: 10% | Activity [6]: 60%

[O-][n+]1onc(-c2ccccc2F)c1-c1ccccc1F [3,4-DI-(2-FLUOROPHENYL)FUROXAN]
Activity [1]: 0% | Activity [2]: 0% | Activity [3]: 0% | Activity [4]: 0% | Activity [5]: 0% | Activity [6]: 6%

Cc1c(Cn2cncn2)no[n+]1[O-] [3-METHYL-4-[(1,2,4-TRIAZOL-1-YL)METHYL]FUROXAN]
Activity [1]: 25% | Activity [2]: 11% | Activity [3]: 0% | Activity [4]: 8% | Activity [5]: 0% | Activity [6]: 4%

[O-][n+]1onc(-c2ccc(Cl)cc2Cl)c1-c1ccc(Cl)cc1Cl [3,4-DI-(2,4-DICHLOROPHENYL)FUROXAN]
Activity [1]: 0% | Activity [2]: 7% | Activity [3]: 0% | Activity [4]: 0% | Activity [5]: 16% | Activity [6]: 38%

Cc1c(C(Cl)c2ccc(Cl)cc2)no[n+]1[O-] (stereo not given) [4-[CHLORO(4-CHLOROPHENYL)METHYL]-3-METHYLFUROXAN]
Activity [1]: 8% | Activity [2]: 0% | Activity [3]: 0% | Activity [4]: 0% | Activity [5]: 0% | Activity [6]: 21%

Cc1ccc(/N=C/c2no[n+]([O-])c2C)cc1C
Activity [1]: 21% | Activity [2]: 53% | Activity [3]: 0% | Activity [4]: 33% | Activity [5]: 24% | Activity [6]: 11%

Cc1c(/C=N/c2ccccc2)no[n+]1[O-]
Activity [1]: 15% | Activity [2]: 73% | Activity [3]: 17% | Activity [4]: 62% | Activity [5]: 5% | Activity [6]: 7%

[O-][n+]1onc(-c2c(Cl)cccc2Cl)c1-c1c(Cl)cccc1Cl [3,4-DI-(2,6-DICHLOROPHENYL)FUROXAN]
Activity [1]: 0% | Activity [2]: 27% | Activity [3]: 0% | Activity [4]: 0% | Activity [5]: 0% | Activity [6]: 41%

[O-][n+]1onc(-c2ccc(C(F)(F)F)cc2)c1-c1ccc(C(F)(F)F)cc1 [3,4-DI-(4-(TRIFLUOROMETHYL)PHENYL)FUROXAN]
Activity [1]: 17% | Activity [2]: 53% | Activity [3]: 0% | Activity [4]: 0% | Activity [5]: 11% | Activity [6]: 6%

Cc1c(/C=N/Nc2ccccc2)no[n+]1[O-]
Activity [1]: 53% | Activity [2]: 36% | Activity [3]: 60% | Activity [4]: 43% | Activity [5]: 0% | Activity [6]: 21%

Cc1ccc(-c2no[n+]([O-])c2-c2ccc(C)s2)s1 [3,4-DI-(5-METHYLTHIOPHEN-2-YL)FUROXAN]
Activity [1]: 17% | Activity [2]: 33% | Activity [3]: 0% | Activity [4]: 0% | Activity [5]: 5% | Activity [6]: 38%

Cc1c(/C=N/c2ccc(Cl)cc2)no[n+]1[O-]
Activity [1]: 53% | Activity [2]: 77% | Activity [3]: 67% | Activity [4]: 52% | Activity [5]: 0% | Activity [6]: 29%
